Assay results as given in patent publication US20210169824A1, “USE OF CANNABINOIDS IN THE TREATMENT OF SEIZURES AS ASSOCIATED WITH LENNOX-GASTAUT SYNDROME” (GW Research Limited, priority 2017, published 2021).

Columns and labels:
[1] = tested on: seizures associated with Lennox-Gastaut syndrome (LGS) in treatment-resistant patients; test: Pooled analysis of two randomised, double-blind, placebo-controlled 14-week studies of add-on cannabidiol in LGS patients deemed AED treatment failures; type: in vivo, human; details: for Total Seizure Frequency, Treatment Difference vs. Placebo / Drop Seizure Frequency, Treatment Difference vs. Placebo: Hodges-Lehmann estimated median difference; for Drop Seizure Frequency, Median % Change During Treatment / Total Seizure Frequency, Median % Change During Treatment: from baseline
From the text: In two placebo-controlled studies of CBD as a treatment for seizures associated with LGS, cannabidiol was used as add-on treatment in patients who were defined as treatment-resistant. Patients had previously tried and stopped using a median of 6 AEDs, and were being maintained on a median of 3 AEDs.
The first study was a 1:1 randomised, double-blind, 14-week comparison of cannabidiol oral solution (CBD-OS) versus placebo. The treatment period consisted of a two-week titration period followed by a 12-week maintenance period. The treatment period was followed by a 10-day taper period and a four-week follow-up period. The study aimed to determine the efficacy, safety and tolerability of 20 mg/kg/day cannabidiol compared with placebo.
The second study was a 1:1:1 randomised, double-blind, 14-week comparison of two dose levels of cannabidiol (10 mg/kg/day and 20 mg/kg/day) versus placebo. The treatment period consisted of a two-week titration period followed by a 12-week maintenance period. The treatment period was followed by a 10-day taper period and a four-week follow-up period. The study aimed to determine the efficacy, safety and tolerability of two dose levels of CBD-OS compared with placebo. Patients in the placebo group were split into two equivalent cohorts; half receiving 10 mg/kg/day dosing volumes and half receiving 20 mg/kg/day dosing volumes.
In order to ensure that caregivers were able to interpret a seizure correctly, all caregivers underwent pre-study training, and their description and classification of a seizure was independently verified by a committee appointed by the Epilepsy Study Consortium
Despite the number of medications, the patients were already taking, the median number of drop seizures at baseline was in excess of 75 per month in both studies. These were patient populations with a high unmet medical need, who had already tried and failed multiple AEDs. In many cases, the AEDs they were being maintained on included those approved for the treatment of LGS; rufinamide, lamotrigine or topiramate.
An analysis of the change in seizure frequency for CBD vs placebo in patients who were currently taking, or had previously taken and stopped, each of rufinamide, lamotrigine or topiramate; felbamate was undertaken. Such patients can be reasonably defined as AED treatment failures.

[2] = patients with epilepsy, open label study, Gaston et al. 2017; cited from earlier work
[3] = Felbamate treatment failures, 10 mg/kg/day, N = 22
[4] = Felbamate treatment failures, 10 mg/kg/day, N = 22, P-value 0.1921 vs placebo
[5] = Felbamate treatment failures, 20 mg/kg/day, N = 38
[6] = Felbamate treatment failures, 20 mg/kg/day, N = 38, P-value 0.0068 vs placebo
[7] = Lamotrigine treatment failures, 10 mg/kg/day, N = 49
[8] = Lamotrigine treatment failures, 10 mg/kg/day, N = 49, P-value 0.0131 vs placebo
[9] = Lamotrigine treatment failures, 20 mg/kg/day, N = 114
[10] = Lamotrigine treatment failures, 20 mg/kg/day, N = 114, P-value <0.0001 vs placebo
[11] = Rufinamide treatment failures, 10 mg/kg/day, N = 47
[12] = Rufinamide treatment failures, 10 mg/kg/day, N = 47, P-value 0.1836 vs placebo
[13] = Rufinamide treatment failures, 20 mg/kg/day, N = 95
[14] = Rufinamide treatment failures, 20 mg/kg/day, N = 95, P-value 0.0011 vs placebo
[15] = Topiramate treatment failures, 10 mg/kg/day, N = 56
[16] = Topiramate treatment failures, 10 mg/kg/day, N = 56, P-value 0.0517 vs placebo
[17] = Topiramate treatment failures, 20 mg/kg/day, N = 111
[18] = Topiramate treatment failures, 20 mg/kg/day, N = 111, P-value 0.0016 vs placebo
[19] = felbamate treatment failures, 20 mg/kg dose
[20] = lamotrigine treatment failures, both doses (10 and 20 mg/kg/day)
[21] = rufinamide treatment failures, 20 mg/kg/day dose

C=C(C)[C@@H]1CCC(C)=C[C@H]1c1c(O)cc(CCCCC)cc1O [Cannabidiol]
reduction in drop and total seizure frequency in patients deemed to be treatment failures ([1]; CBD combined with rufinamide, lamotrigine, topiramate or felbamate): statistically significant reduction
Total Seizure Frequency, Treatment Difference vs. Placebo ([1]; Felbamate treatment failures, 10 mg/kg/day, P-value 0.0282): −21.77%
Drop Seizure Frequency, Treatment Difference vs. Placebo ([1]; Felbamate treatment failures, 10 mg/kg/day, P-value 0.2984): −11.57%
Drop Seizure Frequency, Treatment Period Median [1, 3]: 68.26 per 28 Days
Total Seizure Frequency, Treatment Period Median [1, 3]: 103.09 per 28 Days
Number of Responders, ≥50% Reduction in Drop Seizure Frequency from Baseline [1, 4]: 6
Responders (%), ≥50% Reduction in Drop Seizure Frequency from Baseline [1, 4]: 27.3%
Drop Seizure Frequency, Median % Change During Treatment [1, 3]: −30.50%
Total Seizure Frequency, Median % Change During Treatment [1, 3]: −34.36%
Drop Seizure Frequency, Treatment Difference vs. Placebo ([1]; Felbamate treatment failures, 20 mg/kg/day, P-value 0.0930): −17.76%
Total Seizure Frequency, Treatment Difference vs. Placebo ([1]; Felbamate treatment failures, 20 mg/kg/day, P-value 0.1179): −14.58%
Drop Seizure Frequency, Treatment Period Median [1, 5]: 47.32 per 28 Days
Total Seizure Frequency, Treatment Period Median [1, 5]: 102.20 per 28 Days
Number of Responders, ≥50% Reduction in Drop Seizure Frequency from Baseline [1, 6]: 15
Responders (%), ≥50% Reduction in Drop Seizure Frequency from Baseline [1, 6]: 39.5%
Drop Seizure Frequency, Median % Change During Treatment [1, 5]: −31.62%
Total Seizure Frequency, Median % Change During Treatment [1, 5]: −27.56%
Drop Seizure Frequency, Treatment Difference vs. Placebo ([1]; Lamotrigine treatment failures, 10 mg/kg/day, P-value 0.0040): −18.79%
Total Seizure Frequency, Treatment Difference vs. Placebo ([1]; Lamotrigine treatment failures, 10 mg/kg/day, P-value 0.0044): −19.63%
Drop Seizure Frequency, Treatment Period Median [1, 7]: 40.29 per 28 Days
Total Seizure Frequency, Treatment Period Median [1, 7]: 68.41 per 28 Days
Number of Responders, ≥50% Reduction in Drop Seizure Frequency from Baseline [1, 8]: 17
Responders (%), ≥50% Reduction in Drop Seizure Frequency from Baseline [1, 8]: 34.7%
Drop Seizure Frequency, Median % Change During Treatment [1, 7]: −37.16%
Total Seizure Frequency, Median % Change During Treatment [1, 7]: −32.87%
Total Seizure Frequency, Treatment Difference vs. Placebo ([1]; Lamotrigine treatment failures, 20 mg/kg/day, P-value 0.0008): −17.35%
Drop Seizure Frequency, Treatment Difference vs. Placebo ([1]; Lamotrigine treatment failures, 20 mg/kg/day, P-value 0.0023): −19.24%
Drop Seizure Frequency, Treatment Period Median [1, 9]: 36.30 per 28 Days
Total Seizure Frequency, Treatment Period Median [1, 9]: 98.64 per 28 Days
Number of Responders, ≥50% Reduction in Drop Seizure Frequency from Baseline [1, 10]: 47
Responders (%), ≥50% Reduction in Drop Seizure Frequency from Baseline [1, 10]: 41.2%
Drop Seizure Frequency, Median % Change During Treatment [1, 9]: −40.74%
Total Seizure Frequency, Median % Change During Treatment [1, 9]: −34.44%
Total Seizure Frequency, Treatment Difference vs. Placebo ([1]; Rufinamide treatment failures, 10 mg/kg/day, P-value 0.0062): −17.54%
Drop Seizure Frequency, Treatment Difference vs. Placebo ([1]; Rufinamide treatment failures, 10 mg/kg/day, P-value 0.1314): −9.80%
Drop Seizure Frequency, Treatment Period Median [1, 11]: 56.00 per 28 Days
Total Seizure Frequency, Treatment Period Median [1, 11]: 95.51 per 28 Days
Number of Responders, ≥50% Reduction in Drop Seizure Frequency from Baseline [1, 12]: 13
Responders (%), ≥50% Reduction in Drop Seizure Frequency from Baseline [1, 12]: 27.7%
Drop Seizure Frequency, Median % Change During Treatment [1, 11]: −32.95%
Total Seizure Frequency, Median % Change During Treatment [1, 11]: −31.25%
Total Seizure Frequency, Treatment Difference vs. Placebo ([1]; Rufinamide treatment failures, 20 mg/kg/day, P-value 0.0008): −19.43%
Drop Seizure Frequency, Treatment Difference vs. Placebo ([1]; Rufinamide treatment failures, 20 mg/kg/day, P-value 0.0022): −19.34%
Drop Seizure Frequency, Treatment Period Median [1, 13]: 42.30 per 28 Days
Total Seizure Frequency, Treatment Period Median [1, 13]: 102.20 per 28 Days
Number of Responders, ≥50% Reduction in Drop Seizure Frequency from Baseline [1, 14]: 37
Responders (%), ≥50% Reduction in Drop Seizure Frequency from Baseline [1, 14]: 38.9%
Drop Seizure Frequency, Median % Change During Treatment [1, 13]: −38.78%
Total Seizure Frequency, Median % Change During Treatment [1, 13]: −34.90%
Total Seizure Frequency, Treatment Difference vs. Placebo ([1]; Topiramate treatment failures, 10 mg/kg/day, P-value 0.0047): −17.04%
Drop Seizure Frequency, Treatment Difference vs. Placebo ([1]; Topiramate treatment failures, 10 mg/kg/day, P-value 0.0074): −16.92%
Drop Seizure Frequency, Treatment Period Median [1, 15]: 57.02 per 28 Days
Total Seizure Frequency, Treatment Period Median [1, 15]: 88.31 per 28 Days
Number of Responders, ≥50% Reduction in Drop Seizure Frequency from Baseline [1, 16]: 17
Responders (%), ≥50% Reduction in Drop Seizure Frequency from Baseline [1, 16]: 30.4%
Drop Seizure Frequency, Median % Change During Treatment [1, 15]: −36.08%
Total Seizure Frequency, Median % Change During Treatment [1, 15]: −31.57%
Total Seizure Frequency, Treatment Difference vs. Placebo ([1]; Topiramate treatment failures, 20 mg/kg/day, P-value 0.0034): −15.87%
Drop Seizure Frequency, Treatment Difference vs. Placebo ([1]; Topiramate treatment failures, 20 mg/kg/day, P-value 0.0069): −16.83%
Drop Seizure Frequency, Treatment Period Median [1, 17]: 44.00 per 28 Days
Total Seizure Frequency, Treatment Period Median [1, 17]: 101.71 per 28 Days
Number of Responders, ≥50% Reduction in Drop Seizure Frequency from Baseline [1, 18]: 40
Responders (%), ≥50% Reduction in Drop Seizure Frequency from Baseline [1, 18]: 36.0%
Drop Seizure Frequency, Median % Change During Treatment [1, 17]: −34.13%
Total Seizure Frequency, Median % Change During Treatment [1, 17]: −33.76%
proportion of patients with a 50% reduction in drop seizure frequency compared with placebo [1, 19]: statistically significantly greater proportion
reduction in drop seizure frequency compared with placebo [1, 19]: marginally statistically significantly greater reduction
proportion of patients with a 50% reduction in drop seizure frequency compared with placebo [1, 20]: significantly greater proportion
reduction in both drop and total seizure frequency compared with placebo [1, 20]: significantly greater reduction
benefit in patients taking without seizure control, or having stopped, the AEDs authorised for LGS in the EU ([1]; pooled data from two studies, effect most significant at 20 mg/kg/day): significant benefit
proportion of patients with a 50% reduction in drop seizure frequency compared with placebo [1, 21]: significantly greater proportion
reduction in drop and total seizure frequency compared with placebo [1, 21]: significantly greater reduction
reduction in both drop and total seizure frequency compared with placebo ([1]; topiramate treatment failures, both doses (10 and 20 mg/kg/day)): significantly greater reduction
proportion of patients with a 50% reduction in drop seizure frequency compared with placebo ([1]; topiramate treatment failures, both doses, statistical significance for 20 mg/kg/day, only marginal for 10 mg/kg/day): greater proportion
serum levels of some AEDs in the presence of CBD [2]: increased
